Laboratory results as given in patent US7208154B2, “Methods and compositions for the treatment of MHC-associated conditions” (Regents of the University of Michigan, priority 2002, dated 2007).
No end group written: not given here.

Key:
[1] = system: hybrid neuroblastoma-glioma NG108–15 cell line; test: Neuroprotection in acutely stressed NG108–15 cells; assay type: cell-based
Method: In order to assess whether shared epitope-containing peptides exert a neuroprotective effect, preliminary experiments were carried out with the hybrid neuroblastoma-glioma NG108–15 cell line. Cells (10^5/ml) were first cultured overnight at near-confluence in 24-well plates in DMEM medium supplemented with 1% fetal calf serum (FCS). Under these conditions, NG108–15 cells show a flat, multipolar morphology and neurite formation. After 20 hours, cells were stressed acutely in serum-free medium (by aspiration of the medium and replacement with serum-free DMEM) with 50 μg/ml of peptides and evaluated morphologically at different time points thereafter. […] Morphological differences between cultures treated with different peptides could be observed as early as 5–6 hrs after treatment. The photographs shown were taken at the 24 hr time point. In another experiment (FIG. 12C), NG108–15 cells were cultured at low cell density (2×10^4/ml) in 1% FCS-containing DMEM medium overnight. The next day cells were subjected to acute stress in serum-free and low glucose (RPMI1640) medium (after aspiration of the 1% FCS DMEM) in the presence of 50 μg/ml of either 65–78*0401 [SEQ ID NO: 6] or 65–78*0402 [SEQ ID NO: 8] peptides. After 72 hours, cells were fixed with 1% formaldehyde and inspected microscopically. Mean±SEM was determined by averaging cell counts in eight randomly-selected microscopic fields in 200× magnification. Neurite-positive cells were defined as cells with one or more projections extending at least twice as long as the cell diameter. […] (FIG. 12C). The calculated number of neurite-positive cells was over 6-fold higher in shared epitope-containing peptide-cultured cells. When cultured in the presence of lysophosphatidic acid or high concentrations of serum, neuronal cells undergo neurite retraction (130). […] Thus, it is concluded that shared epitope-containing peptides may exert neuroprotective effects.

[2] = system: M1 cells; test: cGMP level (enzyme immunoassay) in M1 cells; assay type: cell-based, human; details: M1 cells exposed to 50 μg/ml soluble peptide
Method: cGMP was determined using an Amersham Pharmacia Biotech cGMP enzymeimmunoassay (EIA) system (Code RPN 226). The reagents (lysis reagents, standards, antibody, cGMP conjugate and wash buffer) are all prepared according to the manufacturer's instructions. Briefly, samples are acetylated with acetylation reagent (acetic anhydride in triethylamine) and then incubated with the antibody reagent and lysis buffer according to the manufacturer's instructions. The cGMP conjugate is then added and the microtiter plate is incubated according to the manufacturer's instructions. The wells are aspirated and washed, enzyme substrate is added and incubated, and the plate can be read at 630 nm or 450 nm (depending on the length of incubation and how the reaction was terminated). Controls are carried out as recommended by the manufacturer, and the results are calculated according to the manufacturer.
D.) cGMP levels in M1 cells were determined as described above using an enzyme immunoassay kit (Pharmacia) at different time points following exposure to 50 μg/ml of soluble 65–78*0401 [SEQ ID NO: 6] or 65–78*0402 [SEQ ID NO: 8] peptides.

[3] = system: human fibroblastoid line M1 cells; details: for Inhibition of cAMP-mediated (2CA-induced) DNA repair induction: M1 cells preincubated overnight with 50 μg/ml soluble peptide
Text: To further determine the signaling pathways involved in DNA repair induction, the inventors used the Trevigen CometAssay™ kit (Cat. No. 4250-50-K). The CometAssay is a single-cell gel electrophoresis method that can measure a variety of types of DNA damage, and repair of damage, in individual cells. The assay is based on the alkaline lysis of labile DNA at sites of damage. The unwound, relaxed DNA is able to migrate out of the cell during electrophoresis and can be visualized by SYBR Green staining.
(§1) To quantify DNA damage, cells were collected and three parallel samples were processed (a negative control, a DNA damage control (H2O2) and a sample subjected to H2O2 following exposure to various modulators of the cAMP signaling pathway). Cells are then washed in PBS. The washed cells are combined with molten low-melting agarose (Trevigen Cat. No. 4250-50-02) and transferred to a CometSlide™ (Trevigen Cat. No. 4250-100-03). The slides are immersed in lysis buffer for 30 min, on ice, in the dark. The slides are then treated with alkali buffer for 20 to 60 min at room temperature in the dark. The slides are then electrophoresed in buffer for 10 min at 20 volts, then fixed in methanol and ethanol. The slides are then stained with SYBR green (Trevigen Cat. No. 4250-50-05) solution and fluorescently imaged with a Diagnostic Instruments digitized camera, mounted on a Nikon Eclipse E400 microscope. Scion Image software is used to quantitate the comet tail intensity. Each data point is derived from tail fluorescent intensity determination in 50–100 individual cells. Data is presented as % DNA repair (the percent decrement in tail fluorescence intensity in agonist or antagonist-treated cells, relative to the intensity recorded in cells treated with H2O2 only)±SEM. (R.U.s)
(§2) To directly examine that possibility, cells were incubated overnight with synthetic peptides corresponding to the region contained within amino acids 65–79 and their ability to mount DNA repair activity in response to cAMP-elevating agents was determined. M1 cells were preincubated overnight with 50 μg/ml of synthetic peptides corresponding to the region surrounding the third allelic hypervariable region (aa 65–79) of each of the following DRβ chains: *0401 (65–79*0401) [SEQ ID NO: 5], *0402 (65–79*0402) [SEQ ID NO: 7], *0403 (65–79*0403) [SEQ ID NO: 9] or *0404(65–79*0404) [SEQ ID NO: 10]. At the end of the preincubation, cells were collected, washed and 2CA-induced DNA repair was determined as above. Table 3 (above) lists the different third allelic hypervariable region peptides used in the entire study disclosed here.
A modified method as described previously by Auger et al. [Nature Med 2:306–310 1996] was used. Briefly, cyanogen bromide activated Speharose 4B (1.5 ml) was washed with 1 mM HCl and incubated with peptides in 0.1 M NaHCO3 and 0.5 M NaCl (pH 8) buffer overnight at 4° C. For each peptide, 5 mg was used per milliliter of Sepharose. Free Sepharose groups were blocked with 0.2 M glycine (pH 8) for 2 hours at room temperature. Columns were washed at 4° C. with the following buffers: 0.1 M NaHCO3, 0.5 M NaCl (pH 8) buffer, then 0.5 M CH3COONa (pH 4) buffer and finally PBS at pH 7.5. M1 cells were plated at a density of 0.5×10^6 cells per well (6 well plate) in 10% FBS DMEM medium until 70–80% confluence. Prior to incubation with peptides, cultures were changed to serum-free DMEM medium, then evenly overlaid with 50 μg bead conjugated peptides, and incubated for the indicated period. Soluble peptides were added overnight to M1 cells at a concentration of 50 μg/ml.

[4] = system: Total cellular protein extracts; test: Peptide affinity chromatography of total cellular protein extracts; assay type: binding; details: total cellular protein extracts loaded
Text: Total cellular protein extracts were loaded onto columns of Sepharose beads, conjugated with either shared epitope-containing peptide 65–78*0404 [SEQ ID NO: 28] or the control peptide 65–78*0402 [SEQ ID NO: 8]. Bound proteins were eluted at low pH. […] 11 sequenced bands matched intracellular proteins, and only two sequences matched previously identified cell surface proteins: heat shock protein 60 (HSP60) and calreticulin. Both calreticulin and HSP60 are chaperones, with strong tendency to form hetero-complexes.

[5] = system: mouse cells; test: cAMP-mediated DNA repair induction in mouse cells (data not shown); assay type: cell-based
Method: as §2

[6] = target: T1, purified recombinant calreticulin (Homo sapiens, UniProt P27797); test: Surface plasmon resonance, peptides immobilized on CM5 chip, calreticulin in flow phase; assay type: binding; details: peptide immobilized on Biacore sensor chip CM5
T1 sequence (P27797 18-417): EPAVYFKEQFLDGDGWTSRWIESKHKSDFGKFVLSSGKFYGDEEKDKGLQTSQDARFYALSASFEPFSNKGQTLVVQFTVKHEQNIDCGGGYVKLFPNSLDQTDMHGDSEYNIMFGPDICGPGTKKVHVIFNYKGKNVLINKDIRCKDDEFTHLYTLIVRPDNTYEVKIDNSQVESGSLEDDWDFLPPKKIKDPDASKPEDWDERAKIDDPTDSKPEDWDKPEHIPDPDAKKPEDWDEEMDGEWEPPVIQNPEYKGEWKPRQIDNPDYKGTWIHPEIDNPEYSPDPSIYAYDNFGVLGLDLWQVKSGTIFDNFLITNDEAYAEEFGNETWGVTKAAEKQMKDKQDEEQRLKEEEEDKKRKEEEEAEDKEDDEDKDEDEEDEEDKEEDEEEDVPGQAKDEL
Text: To determine whether 65–78*0404 [SEQ ID NO: 28]-conjugated peptides bind these proteins directly, purified recombinant products were used. […] Shared epitope-containing peptides, 65–79*0401-[SEQ ID NO: 5] and 65–79*0404-[SEQ ID NO: 10], as well as a control peptide 65–79*0402-[SEQ ID NO: 7] were immobilized on different channels in a Biacore® sensor chip CM5 and purified recombinant calreticulin was applied in the flow phase.

[7] = target: T2, human A2A adenosine receptor (Homo sapiens, UniProt P29274); test: Comet assay DNA repair in HEK293/A2a transfectants; assay type: cell-based; details: 20 min pretreatment, various doses
T2 construct: expressed in transfected cells; provided by Joel Linden
Method: as §1
(§3) Human embryonic kidney 293 cells (HEK 293) transfected with adenosine receptors were provided by Joel Linden. […]

[8] = target: T3, human A2B adenosine receptor (Homo sapiens, UniProt P29275); test: Comet assay DNA repair in HEK293/A2b transfectants; assay type: cell-based; details: 20 min pretreatment, various doses
T3 construct: expressed in transfected cells; provided by Joel Linden
T3 sequence (P29275 1-332): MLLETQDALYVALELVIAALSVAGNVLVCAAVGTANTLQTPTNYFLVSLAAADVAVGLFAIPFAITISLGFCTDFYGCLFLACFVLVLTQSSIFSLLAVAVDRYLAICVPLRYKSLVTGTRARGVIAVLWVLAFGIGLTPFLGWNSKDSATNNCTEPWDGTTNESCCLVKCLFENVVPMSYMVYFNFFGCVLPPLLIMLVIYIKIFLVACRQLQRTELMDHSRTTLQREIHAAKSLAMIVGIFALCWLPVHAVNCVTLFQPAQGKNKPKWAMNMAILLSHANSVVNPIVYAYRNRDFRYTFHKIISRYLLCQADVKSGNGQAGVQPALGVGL
Method: as §1, §3

[9] = target: T4, calreticulin (Homo sapiens, UniProt P27797); test: Peptide affinity column binding of purified recombinant calreticulin; details: immunoblot of eluate
T4 sequence (P27797 18-417): T1 sequence (P27797 18-417)

T2 sequence (P29274 whole entry): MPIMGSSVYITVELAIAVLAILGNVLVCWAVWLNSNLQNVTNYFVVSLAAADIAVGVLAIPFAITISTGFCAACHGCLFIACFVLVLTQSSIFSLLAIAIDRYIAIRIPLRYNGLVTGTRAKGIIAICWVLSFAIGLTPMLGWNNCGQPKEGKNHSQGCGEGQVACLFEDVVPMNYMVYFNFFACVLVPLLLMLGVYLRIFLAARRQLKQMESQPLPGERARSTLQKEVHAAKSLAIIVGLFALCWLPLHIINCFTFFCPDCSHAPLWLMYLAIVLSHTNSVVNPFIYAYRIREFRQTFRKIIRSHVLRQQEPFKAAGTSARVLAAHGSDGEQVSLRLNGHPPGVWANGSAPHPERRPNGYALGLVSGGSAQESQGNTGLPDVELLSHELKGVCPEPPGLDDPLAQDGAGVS

Question: How did the “Inhibition of neurite retraction effect of 10% FCS” value ([1]; data not shown) turn out when KDLLEQKRAAVDTY-NH2 [65–78*0401] was run?
Answer: inhibited the neurite retraction effect

Question: And the “Survival rate versus control peptide 65–78*0402” value ([1]; low density, serum-free low glucose medium, 50 μg/ml, 72 hours, p<0.0005)?
Answer: significantly higher survival rate

Question: What about the “Percentage of neurite-positive cells versus control peptide 65–78*0402” value ([1]; low density, serum-free low glucose medium, 50 μg/ml, 72 hours, p<0.001) of the same compound?
Answer: higher percentage of neurite-positive cells

Question: And the “Cell morphology after acute serum-free stress” value ([1]; near-confluent NG108–15, 50 μg/ml peptide, 24 hr)?
Answer: greater preservation of the multipolar flat cell morphology with neurites

Question: And the “Calculated number of neurite-positive cells, fold higher than control peptide” value ([1]; serum-free low glucose medium, 50 μg/ml, 72 hours)?
Answer: over 6 fold

Question: What about the cGMP levels [2] of the same compound?
Answer: triggered increased cGMP levels

Question: What about the IC50 [3] of the same compound?
Answer: ~250 nM

Question: With “KDILEDERAAVDTYC [65–79*0402, control peptide, amino acids 65–79 of the β chain encoded by the HLA-DRB*0402 allele]” as the compound, how does the “Protein binding: distinct bands in low pH eluates of peptide-conjugated Sepharose column” value [4] read?
Answer: no protein binding was detected

Question: Which results are given for “KDLLEQRRAAVDTYC [65–79*0404, synthetic peptide corresponding to amino acids 65–79 of the β chain encoded by the HLA-DRB*0404 allele]”?
Answer: Inhibition of cAMP-mediated DNA repair induction [5]: inhibited cAMP-mediated DNA repair induction; Inhibition of cAMP-mediated (2CA-induced) DNA repair induction [3]: inhibited cAMP-mediated DNA repair induction; Calreticulin binding compared to control peptide 65–79*0402 [6]: markedly higher calreticulin binding

Question: Which “2CA-induced DNA repair signal transduced” value [7] does the source give for `Nc1nc(Cl)nc2c1ncn2[C@@H]1O[C@H](CO)[C@@H](O)[C@H]1O` [2CA, 2-chloroadenosine] here?
Answer: transduced the signal

Question: And the “2CA-induced DNA repair signal transduced” value [8]?
Answer: transduced the signal

Question: And the DNA repair triggered ([3]; M1 cells stimulated 20 min with various concentrations before 100 μM H2O2)?
Answer: triggered in all cases DNA repair

Question: What does the source list for “KDLLEQRRAAVDTY [65–78*0404, synthetic peptide corresponding to amino acids 65–78 of the β chain encoded by the HLA-DRB*0404 allele]”?
Answer: Protein binding: distinct bands in low pH eluates of peptide-conjugated Sepharose column [4]: ~20; Binding of recombinant human calreticulin to peptide affinity column [9]: specifically bound

Question: Which “Inhibition of cAMP-mediated DNA repair induction” value [5] does the source give for “KDLLEQKRAAVDTYC [65–79*0401, synthetic peptide corresponding to amino acids 65–79 of the β chain encoded by the HLA-DRB*0401 allele]” here?
Answer: inhibited cAMP-mediated DNA repair induction

Question: And the “Inhibition of cAMP-mediated (2CA-induced) DNA repair induction” value [3]?
Answer: inhibited cAMP-mediated DNA repair induction

Question: What about the “Calreticulin binding compared to control peptide 65–79*0402” value [6] of the same compound?
Answer: markedly higher calreticulin binding
